This is an account of results in patent US20140135310A1, “SULPHONAMIDE DERIVATIVES OF ALICYCLIC AMINES FOR THE TREATMENT OF CENTRAL NERVOUS SYSTEM DISEASES” (Adamed Sp. z o.o., priority 2011, published 2014).

For test [1], the target named is dopaminergic receptors D2 (Homo sapiens, UniProt P14416). Description: Radioligand binding assay, dopaminergic D2 receptors. The conditions noted are these: binding assay, test compound 1×10^−6 M. The method in brief: (§1)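 Competition radioligand binding at human D2, D3 and D4.4 receptors, detected by scintillation counting; nonspecific binding defined with excess unlabelled ligand. Results as percent inhibition of control specific binding; IC50 by Hill-equation nonlinear regression; Ki via Cheng-Prusoff, with radioligand KD from Scatchard plot.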

Test [2] addresses dopaminergic receptors D3 (Homo sapiens, UniProt P35462). Put plainly: Radioligand binding assay, dopaminergic D3 receptors. The following applies: test compound 1×10^−6 M. The gist of the method: as §1
Test [3] addresses T1, 5-HT6 receptor (Homo sapiens, UniProt P50406).
T1 construct: purchased PerkinElmer
Description: Radioligand binding assay, serotoninergic 5-HT6 receptors. The conditions noted are these: binding assay result in %, Table 5a. The gist of the method: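 Values are Ki from Cheng–Prusoff, taking IC50 from Hill nonlinear regression of competition curves and KD from a Scatchard plot. Specific binding was total minus binding with excess unlabelled ligand. Radioligand displacement was detected by scintillation counting, and data were also reported as percent of control specific binding.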

For test [4], the system named is α1 adrenergic receptors (rat cerebral cortex). Description: Radioligand binding assay, adrenergic α1 receptors. The conditions noted are these: test compound 1×10^−6 M. From the text:
The specific ligand binding to the receptors is defined as the difference between the total binding and the non-specific binding determined in the presence of the excess of unlabelled ligand.
The results are expressed as a percent of control specific binding ((measured specific binding/control specific binding)×100) and as a percent inhibition of control specific binding (100−((measured specific binding/control specific binding)×100)) obtained in the presence of the test compounds. The specific ligand binding to the receptors is defined as the difference between the total binding and the nonspecific binding determined in the presence of an excess of unlabelled ligand. Scintillation counting was the method of detection of ligand binding. The IC50 values (concentration causing a half-maximal inhibition of control specific binding) were determined by non-linear regression analysis of the competition curves generated with mean replicate values using Hill equation curve fitting (Y=D+[(A−D)/(1+(C/C50)nH)], where Y=specific binding, D=minimum specific binding, A=maximum specific binding, C=compound concentration, C50=IC50, and nH=slope factor). […] The inhibition constants (Ki) were calculated using the Cheng Prusoff equation (Ki=IC50/(1+(L/KD)), where L=concentration of radioligand in the assay, and KD=affinity of the radioligand for the receptor). A scatchard plot was used to determine the Kd.

Test [5] addresses T2, 5-HT7 receptor (Homo sapiens, UniProt P34969).
T2 construct: purchased PerkinElmer
Description: Radioligand binding assay, serotoninergic 5-HT7 receptors. The following applies: binding assay result in %, Table 5a. The gist of the method: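 Competition binding at human 5-HT7 receptors with a radioligand, detected by scintillation counting; non-specific binding was defined with excess unlabelled ligand. IC50 came from Hill-equation fits of competition curves, and Ki from Cheng–Prusoff using radioligand concentration and Scatchard-derived KD.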

Test [6] deals with T3, 5-HT1A receptor (rat hippocampus) (Rattus norvegicus, UniProt P19327).
T3 construct: hippocampus; from tissue; host or cells: rat hippocampus
T3 sequence (P19327 1-422): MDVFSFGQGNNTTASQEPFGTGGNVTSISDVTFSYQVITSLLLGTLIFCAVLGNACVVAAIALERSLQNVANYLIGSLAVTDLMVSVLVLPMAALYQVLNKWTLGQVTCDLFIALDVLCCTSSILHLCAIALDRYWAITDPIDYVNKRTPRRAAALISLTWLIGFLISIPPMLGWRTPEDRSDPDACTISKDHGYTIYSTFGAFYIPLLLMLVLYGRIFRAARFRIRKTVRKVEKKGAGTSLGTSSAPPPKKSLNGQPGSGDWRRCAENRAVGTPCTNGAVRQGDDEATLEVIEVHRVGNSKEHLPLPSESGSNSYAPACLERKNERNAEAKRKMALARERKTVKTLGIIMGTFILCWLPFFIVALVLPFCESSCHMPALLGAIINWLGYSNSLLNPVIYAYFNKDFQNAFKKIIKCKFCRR
Put plainly: Radioligand binding assay, serotoninergic 5-HT1A receptors. The following applies: binding assay result in %, Table 5a.

Test [7] concerns the target T4, serotonin transporter (SERT) (Homo sapiens, UniProt P31645).
T4 construct: expressed in transfected cells; host or cells: CHO cells
Put plainly: Radioligand binding assay, serotonin transporter (SERT). The following applies: binding assay, test compound 1×10^−6 M. The method in brief: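 Radioligand competition binding with scintillation detection; specific binding is total minus binding under excess unlabelled ligand. Reported as % of control specific binding or % inhibition; IC50 from Hill-equation non-linear regression of competition curves, and Ki via Cheng-Prusoff using radioligand concentration and Scatchard-derived KD.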

The target in test [8] is T5, 5-HT2A receptor (Homo sapiens, UniProt P28223).
T5 construct: purchased PerkinElmer
Description: Radioligand binding assay, serotoninergic 5-HT2A receptors. The conditions noted are these: binding assay result in %, Table 5a. The gist of the method: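 Radioligand competition binding with scintillation counting; nonspecific binding defined by excess unlabelled ligand. Data as percent inhibition of control specific binding. IC50 by Hill-equation fit of competition curves; Ki by Cheng-Prusoff, with radioligand Kd from Scatchard plot.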

dopaminergic receptors D3, sequence (P35462 whole entry): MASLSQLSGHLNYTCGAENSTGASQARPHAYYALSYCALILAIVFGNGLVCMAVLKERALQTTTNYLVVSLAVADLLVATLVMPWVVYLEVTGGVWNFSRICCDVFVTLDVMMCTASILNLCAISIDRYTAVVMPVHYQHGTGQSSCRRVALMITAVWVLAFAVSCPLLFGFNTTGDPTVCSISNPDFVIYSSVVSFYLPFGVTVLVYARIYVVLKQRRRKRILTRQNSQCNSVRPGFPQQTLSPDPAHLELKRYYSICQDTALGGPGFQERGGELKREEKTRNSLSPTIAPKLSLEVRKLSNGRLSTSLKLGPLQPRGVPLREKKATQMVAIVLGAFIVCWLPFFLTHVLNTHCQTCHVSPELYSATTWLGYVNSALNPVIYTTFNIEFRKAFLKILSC
T5 sequence (P28223 whole entry): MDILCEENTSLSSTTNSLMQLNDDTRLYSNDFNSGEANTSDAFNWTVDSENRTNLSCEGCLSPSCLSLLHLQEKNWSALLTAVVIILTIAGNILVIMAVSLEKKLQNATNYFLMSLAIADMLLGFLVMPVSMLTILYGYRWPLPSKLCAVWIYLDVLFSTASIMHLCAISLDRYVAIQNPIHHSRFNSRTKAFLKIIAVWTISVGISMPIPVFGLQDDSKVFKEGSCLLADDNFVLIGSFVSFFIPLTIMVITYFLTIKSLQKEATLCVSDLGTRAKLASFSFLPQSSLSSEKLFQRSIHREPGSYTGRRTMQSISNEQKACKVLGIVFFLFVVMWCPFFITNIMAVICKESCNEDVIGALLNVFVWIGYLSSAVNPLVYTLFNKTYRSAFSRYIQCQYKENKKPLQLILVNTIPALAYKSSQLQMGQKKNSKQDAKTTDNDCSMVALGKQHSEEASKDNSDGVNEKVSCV
T1 sequence (P50406 whole entry): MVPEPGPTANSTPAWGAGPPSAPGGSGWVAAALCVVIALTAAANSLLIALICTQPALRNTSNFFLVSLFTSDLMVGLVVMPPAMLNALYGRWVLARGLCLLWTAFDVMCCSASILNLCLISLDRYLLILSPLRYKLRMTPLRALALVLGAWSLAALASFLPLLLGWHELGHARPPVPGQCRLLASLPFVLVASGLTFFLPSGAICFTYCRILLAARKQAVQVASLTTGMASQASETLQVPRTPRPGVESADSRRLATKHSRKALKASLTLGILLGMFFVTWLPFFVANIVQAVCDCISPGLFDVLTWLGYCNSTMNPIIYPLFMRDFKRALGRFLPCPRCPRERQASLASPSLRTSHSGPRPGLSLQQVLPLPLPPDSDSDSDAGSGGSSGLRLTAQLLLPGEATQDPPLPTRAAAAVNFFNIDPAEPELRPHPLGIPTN
dopaminergic receptors D2, sequence (P14416 whole entry): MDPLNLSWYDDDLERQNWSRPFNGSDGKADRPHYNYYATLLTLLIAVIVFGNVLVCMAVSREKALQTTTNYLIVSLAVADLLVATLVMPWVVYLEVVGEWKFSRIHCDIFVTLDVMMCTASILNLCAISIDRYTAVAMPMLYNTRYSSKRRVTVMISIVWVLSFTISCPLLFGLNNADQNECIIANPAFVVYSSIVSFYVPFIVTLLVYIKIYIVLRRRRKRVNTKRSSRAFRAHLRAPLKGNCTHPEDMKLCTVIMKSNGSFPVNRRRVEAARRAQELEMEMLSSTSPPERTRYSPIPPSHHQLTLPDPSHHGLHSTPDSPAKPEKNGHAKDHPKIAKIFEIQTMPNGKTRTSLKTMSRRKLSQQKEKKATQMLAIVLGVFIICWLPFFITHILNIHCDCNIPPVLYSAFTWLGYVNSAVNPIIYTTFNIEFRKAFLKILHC
T4 sequence (P31645 whole entry): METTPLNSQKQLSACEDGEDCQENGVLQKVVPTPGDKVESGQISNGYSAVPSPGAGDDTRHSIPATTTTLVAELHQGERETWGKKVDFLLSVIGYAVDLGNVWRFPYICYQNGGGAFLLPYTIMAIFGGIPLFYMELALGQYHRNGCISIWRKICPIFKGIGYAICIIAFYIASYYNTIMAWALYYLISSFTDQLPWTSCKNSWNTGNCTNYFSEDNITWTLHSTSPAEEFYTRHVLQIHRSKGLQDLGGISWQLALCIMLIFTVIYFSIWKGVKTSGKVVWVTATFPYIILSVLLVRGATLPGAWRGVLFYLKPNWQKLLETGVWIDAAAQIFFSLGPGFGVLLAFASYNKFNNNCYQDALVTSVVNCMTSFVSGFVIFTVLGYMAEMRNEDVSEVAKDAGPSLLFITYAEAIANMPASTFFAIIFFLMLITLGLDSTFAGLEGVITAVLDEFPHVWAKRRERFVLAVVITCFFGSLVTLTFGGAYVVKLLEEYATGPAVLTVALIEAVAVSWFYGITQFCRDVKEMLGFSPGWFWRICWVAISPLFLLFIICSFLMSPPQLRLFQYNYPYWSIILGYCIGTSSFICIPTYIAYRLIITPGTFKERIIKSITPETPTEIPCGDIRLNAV
T2 sequence (P34969 whole entry): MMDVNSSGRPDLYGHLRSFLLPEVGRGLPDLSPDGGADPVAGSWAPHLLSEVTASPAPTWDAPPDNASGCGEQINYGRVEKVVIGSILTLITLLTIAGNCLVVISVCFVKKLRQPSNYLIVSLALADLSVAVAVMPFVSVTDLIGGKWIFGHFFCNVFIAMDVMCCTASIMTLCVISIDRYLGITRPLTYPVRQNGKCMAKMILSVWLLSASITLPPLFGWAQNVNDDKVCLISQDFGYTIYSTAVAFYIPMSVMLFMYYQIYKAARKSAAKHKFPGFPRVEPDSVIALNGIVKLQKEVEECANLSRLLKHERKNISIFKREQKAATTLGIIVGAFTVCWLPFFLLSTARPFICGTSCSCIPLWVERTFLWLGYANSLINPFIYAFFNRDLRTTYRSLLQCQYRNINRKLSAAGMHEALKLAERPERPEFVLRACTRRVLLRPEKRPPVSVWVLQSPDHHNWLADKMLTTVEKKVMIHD

With “3,4-Dichloro-N-[1-[3-(6-fluoro-1,2-benzoxazol-3-yl)propyl]pyrrolidin-3-yl]benzenesulphonamide [Compound 211]”, the “D2 [%]” value in test [1] is 93%. Also, the “D3 [%]” value in test [2] worked out at 63%. In addition, the “5-HT6 [%]” value in test [3] is reported as 92%. Further, the “α1 [%]” value in test [4] is recorded as 90%. Besides, the “5-HT7 [%]” value in test [5] was found to be 107%. Also, in test [6], the “5-HT1A [%]” value is recorded as 32%. In addition, in test [7], the “SERT [%]” value is given as 4%. The “5-HT2A [%]” value in test [8] is on record as 100%.

Broadly, the inhibition is the drop in the measured response relative to a control, in per cent. Turning to `O=S(=O)(NC1CCN(CCCc2noc3cc(F)ccc23)C1)c1ccc(F)cc1` (stereo not drawn) [Compound 8, 4-Fluoro-N-[1-[3-(6-fluoro-1,2-benzoxazol-3-yl)propyl]pyrrolidin-3-yl]benzenesulphonamide], the inhibition at 1 µM in test [1] was 72%; in test [2] it was 18%; in test [3] it was 64%; in test [5], 85%; in test [6] it was 5%; in test [7], -13%. The inhibition at 1 µM in test [8] amounted to 97%. Further, in test [4], the “α1 [%]” value was found to be 95%.

On to `O=S(=O)(NC1CCN(CCCc2noc3cc(F)ccc23)C1)c1cccc(Cl)c1` (stereo not drawn) [Compound 9, 3-Chloro-N-[1-[3-(6-fluoro-1,2-benzoxazol-3-yl)propyl]pyrrolidin-3-yl]benzenesulphonamide], for which the inhibition at 1 µM in test [1] was determined as 88%; in test [2], 30%; in test [3], 75%; in test [5], 90%; in test [6], 12%; in test [7], 2%. Also, the inhibition at 1 µM in test [8] was determined as 95%. Further, the “α1 [%]” value in test [4] was 83%.

As to `O=S(=O)(NC1CCN(CCCc2noc3cc(F)ccc23)C1)c1cccc(C(F)(F)F)c1` (stereo not drawn) [Compound 15, N-[1-[3-(6-Fluoro-1,2-benzoxazol-3-yl)propyl]pyrrolidin-3-yl]-3-(trifluoromethyl)benzenesulphonamide], the inhibition at 1 µM was 75% in test [1]; 14% in test [2]; 83% in test [3]; 48% in test [5]; 18% in test [6]; -7% in test [7]. In addition, the inhibition at 1 µM in test [8] was determined as 57%. Besides, the “α1 [%]” value in test [4] was 89%.

Take `O=S(=O)(NC1CCN(CCCc2noc3cc(F)ccc23)C1)c1cccc(O)c1` (stereo not drawn) [Compound 18, N-[1-[3-(6-Fluoro-1,2-benzoxazol-3-yl)propyl]pyrrolidin-3-yl]-3-hydroxybenzenesulphonamide]: the inhibition at 1 µM in test [1] was 73%; in test [2] it was 31%; in test [3], 59%; in test [5], 94%; in test [6], 18%; in test [7], 37%. For the same compound, the inhibition at 1 µM in test [8] came to 85%. Besides, in test [4], the “α1 [%]” value was 98%.

For `O=S(=O)(NC1CCN(CCCc2noc3cc(F)ccc23)C1)c1ccc(Cl)s1` (stereo not drawn) [Compound 22, 5-Chloro-N-[1-[3-(6-fluoro-1,2-benzoxazol-3-yl)propyl]pyrrolidin-3-yl]thiophene-2-sulphonamide], the inhibition at 1 µM stood at 85% in test [1]; 23% in test [2]; 72% in test [3]; 85% in test [5]; 0% in test [6]; 5% in test [7]. In test [8], the inhibition at 1 µM worked out at 95%. Also, in test [4], the “α1 [%]” value came out at 91%.

`O=S(=O)(NC1CCN(CCCc2noc3cc(F)ccc23)C1)c1ccc2c(c1)OCC2` (stereo not drawn) [Compound 24, N-[1-[3-(6-Fluoro-1,2-benzoxazol-3-yl)propyl]pyrrolidin-3-yl]-2,3-dihydrobenzofuran-6-sulphonamide]: the inhibition at 1 µM is 94% in test [1]; 52% in test [2]; 78% in test [3]; 82% in test [5]; 19% in test [6]; -10% in test [7]. Further, in test [8], the inhibition at 1 µM came to 95%. In test [4], the “α1 [%]” value is reported as 101%.

On to `O=S(=O)(NC1CCN(CCCc2noc3cc(F)ccc23)C1)c1cnc2ccccn12` (stereo not drawn) [Compound 30, N-[1-[3-(6-Fluoro-1,2-benzoxazol-3-yl)propyl]pyrrolidin-3-yl]imidazo-[1,2-a]pyridine-3-sulphonamide], for which the inhibition at 1 µM in test [1] was 62%; in test [2], -2%; in test [3] it was 77%; in test [5] it was 82%; in test [6], 5%; in test [7], 36%. Besides, in test [8], the inhibition at 1 µM worked out at 95%. Also, the “α1 [%]” value in test [4] is 84%.

As to `O=S(=O)(NC1CCN(CCCc2noc3cc(F)ccc23)CC1)c1ccc2ccccc2c1` [Compound 35, N-[1-[3-(6-Fluoro-1,2-benzoxazol-3-yl)propyl]-4-piperidine]-naphthalene-2-sulphonamide], the “D2 [%]” value in test [1] turned out to be 77%. Further, the “D3 [%]” value in test [2] was determined as 56%. In addition, in test [3], the “5-HT6 [%]” value stood at 97%. Moreover, the “α1 [%]” value in test [4] was 99%. Further, the “5-HT7 [%]” value in test [5] is 98%. Moreover, the “5-HT1A [%]” value in test [6] stood at 28%. Moreover, the “SERT [%]” value in test [7] is listed as 29%. For the same compound, the “5-HT2A [%]” value in test [8] is reported as 91%.

As to `Cc1cccc(S(=O)(=O)NCC2CCN(CCCc3noc4cc(F)ccc34)CC2)c1` [Compound 36, N-[[1-[3-(6-Fluoro-1,2-benzoxazol-3-yl)propyl]-4-piperidine]methyl]-3-methylbenzenesulphonamide], the “D2 [%]” value in test [1] came to 57%. The “D3 [%]” value in test [2] is 38%. In addition, the “5-HT6 [%]” value in test [3] was found to be 75%. Moreover, the “α1 [%]” value in test [4] is 103%. In addition, in test [5], the “5-HT7 [%]” value turned out to be 88%. Besides, the “5-HT1A [%]” value in test [6] is reported as 18%. Also, the “SERT [%]” value in test [7] is 0%. In addition, the “5-HT2A [%]” value in test [8] is on record as 59%.

Take `O=S(=O)(NCC1CCN(CCCc2noc3cc(F)ccc23)CC1)c1cccc2ccccc12` [Compound 37, N-[[1-[3-(6-Fluoro-1,2-benzoxazol-3-yl)propyl]-4-piperidine]methyl]-naphthalene-1-sulphonamide]: in test [1], the “D2 [%]” value was determined as 83%. Besides, the “D3 [%]” value in test [2] was 66%. Further, in test [3], the “5-HT6 [%]” value is recorded as 97%. The “α1 [%]” value in test [4] stood at 96%. Moreover, the “5-HT7 [%]” value in test [5] was 94%. For the same compound, the “5-HT1A [%]” value in test [6] is given as 29%. For the same compound, the “SERT [%]” value in test [7] is given as 30%. For the same compound, the “5-HT2A [%]” value in test [8] was found to be 56%.

Consider `O=S(=O)(NCC1CCN(CCCc2noc3cc(F)ccc23)CC1)c1ccc2ccccc2c1` [Compound 38, N-[[1-[3-(6-Fluoro-1,2-benzoxazol-3-yl)propyl]-4-piperidine]methyl]-naphthalene-2-sulphonamide], for which the “D2 [%]” value in test [1] amounted to 77%. In test [2], the “D3 [%]” value was determined as 64%. Besides, in test [3], the “5-HT6 [%]” value worked out at 104%. Further, the “α1 [%]” value in test [4] turned out to be 98%. Moreover, the “5-HT7 [%]” value in test [5] came out at 94%. Moreover, the “5-HT1A [%]” value in test [6] was 25%. For the same compound, in test [7], the “SERT [%]” value amounted to 17%. In test [8], the “5-HT2A [%]” value is 82%.
